Columns and labels:
Assay type in all cases: cell-based
Settings in all cases: relative growth vs active compound-free control (100%), absorption at 405 nm 7 days after inoculation, 18°C
[1] = tested on: Botrytis cinerea; assay: Activity against the grey mold Botrytis cinerea in the microtiterplate test (Botrci)
[2] = tested on: Pyricularia oryzae
[3] = tested on: Septoria tritici; assay: Activity against leaf blotch on wheat caused by Septoria tritici (Septtr), microtiter plate test

SMILES	Growth (%) at 31 ppm Botrci [1] [%]	Growth (%) at 31 ppm Pyrior [2] [%]	Growth (%) at 31 ppm Septtr [3] [%]
OC(Cn1cncn1)c1ccc(Oc2ccc(Cl)cc2)c(Cl)c1 (centres unmarked) [Compound I-2, 1-[3-Chloro-4-(4-chlorophenoxy)phenyl]-2-(1,2,4-triazol-1-yl)ethanol]	13	1	–
COC(C)(Cn1cncn1)c1ccc(Oc2ccc(Cl)cc2)c(Cl)c1 (centres unmarked) [Compound I-3, 1-[2-[3-chloro-4-(4-chlorophenoxy)phenyl]-2-methoxy-propyl]-1,2,4-triazole]	–	0	–
CC(O)(Cn1cncn1)c1ccc(Oc2ccc(Cl)cc2)c(Cl)c1 (centres unmarked) [Compound I-4, 2-[3-chloro-4-(4-chlorophenoxy)phenyl]-1-(1,2,4-triazol-1-yl)propan-2-ol]	17	0	–
CC(O)(Cn1cncn1)c1ccc(Oc2ccc(Cl)cc2)c(C(F)(F)F)c1 (centres unmarked) [Compound I-5]	–	0	14
COC(C)(Cn1cncn1)c1ccc(Oc2ccc(Cl)cc2)c(C(F)(F)F)c1 (centres unmarked) [Compound I-6]	–	0	–
